Values after ≈ are worked out from the molar mass of the structure shown.
Key:
[1] = system: P. aeruginosa MUW 700 AmpC(+); assay: MIC of tested agent alone, microdilution; assay type: cell-based; conditions: Pseudomonas aeruginosa; read-out: MIC of agent alone
Protocol: (§1) To examine the ability of tested agents to inhibit various carbapenemases and AmpC-enzymes, their synergy with antibiotics against β-lactamase-producing strains was assessed by checkerboard microdilution assay, with slight modification. Checkerboards were prepared in microtiter plates, with seven two-fold dilutions of β-lactams (1–64 mg/L) in the rows and three two-fold dilutions of tested agents and PBA (4–16 mg/L) in the columns. Tested agents’ concentrations were limited to the concentrations at which the newest commercially available BLIs (vaborbactam, relebactam, and avibactam) are used in susceptibility testing. Plates were inoculated and incubated as in the MIC microdilution assay. Parallel, MICs of tested agents and PBA alone were determined by the microdilution assay. Following the incubation, antibiotic MICs in the presence of each agent’s concentration were determined. Moreover, for the first well without growth found in each checkerboard row and column along the growth/non-growth interface, the fractional inhibitory concentration index (FICI) was calculated using the formula below:FICI = [(MIC of antibiotic in combination)/(MIC of antibiotic alone)] + [(MIC of the tested agent in combination)/(MIC of tested agent alone)].

[2] = system: K. pneumoniae 81 KPC-3(+); assay: MIC of tested agent alone, microdilution; assay type: cell-based; conditions: Klebsiella pneumoniae; read-out: MIC of agent alone
Protocol: as §1

[3] = system: K. pneumoniae 83 KPC-3(+), CTX-M-3(+); assay: MIC of tested agent alone, microdilution; assay type: cell-based; conditions: Klebsiella pneumoniae; read-out: MIC of agent alone
Protocol: as §1

E. coli 77 CMY-2(+) = assay: MIC of tested agent alone, microdilution; assay type: cell-based; conditions: Escherichia coli; read-out: MIC of agent alone
Protocol: as §1

E. coli 76 KPC-2(+) = assay: MIC of tested agent alone, microdilution; assay type: cell-based; conditions: Escherichia coli; read-out: MIC of agent alone
Protocol: as §1

[4] = system: K. pneumoniae ATCC BAA-1705 KPC-2(+); assay: MIC of tested agent alone, microdilution; assay type: cell-based; conditions: Klebsiella pneumoniae, ATCCBAA1705; read-out: MIC of agent alone
Protocol: as §1

[5] = system: C. guilliermondii IBA 155; assay: antifungal activity (disc-diffusion, MIC, MFC); assay type: cell-based, Candida guilliermondii; conditions: Meyerozyma guilliermondii, IBA155; fluconazole by Etest
Protocol: (§2) Direct antimicrobial activity against Gram-negative and Gram-positive bacterial strains, as well as against yeast, was examined as previously described by the disc-diffusion test, the MIC determination assay, the MBC (for bacteria), and the MFC (for yeasts) determination tests. All the above-mentioned tests were performed according to EUCAST [71, 72] and CLSI [73, 74, 75, 76, 77] recommendations. The following reference agents were used: nitrofurantoin (for Gram-negative rods), linezolid (for Gram-positive bacteria), and fluconazole (in the case of fungi). The new aromatic diboronic acids were dissolved in DMSO (Sigma, St. Louis, MO, USA). In the disc-diffusion test, the concentration of new agents was 0.4 mg per disc.

[6] = system: P. aeruginosa MUW 700 cAmpC-positive; assay: combination disc test CDT-AmpC; assay type: cell-based; conditions: Pseudomonas aeruginosa; agent 0.3 mg per disc; read-out: Diameter of inhibition zone, CAZ-30 disc with agent
[7] = MTT-based viability assay; assay type: cell-based; conditions: human, MRC-5 human fibroblasts, 72 h, read-out: Viability of MRC-5 cells (% of viable cells ± SD)
Protocol: MRC-5 human fibroblasts (ECACC) were cultured in MEME, Minimum Essential Medium Eagle (Merck) supplemented with 10% fetal bovine serum (Merck), 2 mM l-glutamine, antibiotics (100 U/mL penicillin, 100 μg/mL streptomycin, Merck) and 1% non-essential amino acids (Merck). Cells were grown in 75 cm^2 cell culture flasks (Sarstedt) in a humidified atmosphere of CO2/air (5/95%) at 37 °C. MTT-based viability assay was conducted as described previously. Optical densities were measured at 570 nm using a BioTek microplate reader. All measurements were carried out in three replicates, and the results were expressed as a percent of viable cells versus control cells.

C. krusei ATCC 6258 = assay: antifungal activity (disc-diffusion, MIC, MFC); assay type: cell-based, Candida krusei; conditions: Pichia kudriavzevii, ATCC6258; fluconazole by Etest
Protocol: as §2

[8] = system: S. aureus ATCC 43300 MRSA; assay: direct antimicrobial activity (disc-diffusion, MIC, MBC); assay type: cell-based; conditions: Staphylococcus aureus
Protocol: as §2

[9] = system: S. epidermidis ATCC 12228; assay: as above; assay type: cell-based; conditions: Staphylococcus epidermidis, ATCC12228
Protocol: as §2

E. faecalis ATCC 29212 = assay: as above; assay type: cell-based; conditions: Enterococcus faecalis, ATCC29212
Protocol: as §2

S. aureus ATCC 6538P = assay: as above; assay type: cell-based; conditions: Staphylococcus aureus, ATCC6538P
Protocol: as §2

E. faecium ATCC 6057 = assay: as above; assay type: cell-based; conditions: Enterococcus faecium, ATCC6057
Protocol: as §2

[10] = system: K. pneumoniae ATCC BAA 1705 KPC-2-positive; assay: combination disc test CDT-KPC; assay type: cell-based; conditions: Klebsiella pneumoniae, BAA1705; agent 0.3 mg per disc; read-out: Diameter of inhibition zone, MEM-10 disc with agent
[11] = system: C. parapsilosis ATCC 22019; assay: antifungal activity (disc-diffusion, MIC, MFC); assay type: cell-based, Candida parapsilosis; conditions: Lodderomyces parapsilosis, ATCC22019; fluconazole by Etest
Protocol: as §2

[12] = system: P. aeruginosa MUW 700 cAmpC-positive; assay: checkerboard microdilution, antibiotic plus tested agent; assay type: cell-based, Pseudomonas aeruginosa
Protocol: as §1
(§3) For calculations, all off-scale MICs were converted to the next-highest doubling concentration. Subsequently, both the average and the lowest FICI were interpreted. The interpretation was as follows: FICI ≤ 0.5, synergy; 0.5 < FICI ≤ 4, indifference and FICI > 4, antagonism. Primarily, examined combinations consisted of meropenem (Pol-Aura, Morag, Poland) plus tested agents against carbapenemases-producing strains and ceftazidime (Pol-Aura, Morag, Poland) plus tested agents against AmpC-producing strains. For agents that reduced meropenem MIC at least 4-fold for at least two tested strains, similar assays were performed with imipenem (Pol-Aura, Morag, Poland) and ertapenem (Pol-Aura, Morag, Poland).

[13] = system: E. coli 77 CMY-2-positive; assay: combination disc test CDT-AmpC; assay type: cell-based; conditions: Escherichia coli; agent 0.3 mg per disc; read-out: Diameter of inhibition zone, CAZ-30 disc with agent
AmpC producers = assay: microdilution with ceftazidime; assay type: cell-based
Protocol: as §1, §3

[14] = system: E. coli 77 CMY-2-positive; assay: checkerboard microdilution, antibiotic plus tested agent; assay type: cell-based, Escherichia coli
Protocol: as §1, §3

S. cerevisiae ATCC 9763 = assay: antifungal activity (disc-diffusion, MIC, MFC); assay type: cell-based; conditions: Saccharomyces cerevisiae, ATCC9763; fluconazole by Etest
Protocol: as §2

C. tropicalis ATCC 750 = assay: antifungal activity (disc-diffusion, MIC, MFC); assay type: cell-based; conditions: Candida tropicalis, ATCC750; fluconazole by Etest
Protocol: as §2

C. tropicalis IBA 171 = assay: antifungal activity (disc-diffusion, MIC, MFC); assay type: cell-based; conditions: Candida tropicalis, IBA171; fluconazole by Etest
Protocol: as §2

C. albicans ATCC 90028 = assay: antifungal activity (disc-diffusion, MIC, MFC); assay type: cell-based; conditions: Candida albicans, ATCC90028; fluconazole by Etest
Protocol: as §2

[15] = system: K. pneumoniae ATCC 700603 ESBL-positive; assay: combination disc test CDT-ESBL; assay type: cell-based; conditions: Klebsiella pneumoniae, ATCC700603; agent 0.3 mg per disc; read-out: Diameter of inhibition zone, CAZ-30 disc with agent
KPC producers = assay: microdilution with carbapenems; assay type: cell-based; conditions: strains used in this study
Protocol: as §1, §3

[16] = system: K. pneumoniae ATCC BAA-1705 KPC-2-positive; assay: checkerboard microdilution, antibiotic plus tested agent; assay type: cell-based, Klebsiella pneumoniae; conditions: Klebsiella pneumoniae, ATCCBAA1705; read-out: MIC of ertapenem alone
Protocol: as §1, §3

[17] = system: K. pneumoniae 83 KPC-3-positive, CTX-M-3-positive; assay: as above; assay type: cell-based, Klebsiella pneumoniae; conditions: Klebsiella pneumoniae; read-out: MIC of ertapenem alone
Protocol: as §1, §3

[18] = system: K. pneumoniae 81 KPC-3-positive; assay: as above; assay type: cell-based, Klebsiella pneumoniae; conditions: Klebsiella pneumoniae; read-out: MIC of ertapenem alone
Protocol: as §1, §3

[19] = system: E. coli 76 KPC-2-positive; assay: as above; assay type: cell-based, Escherichia coli; conditions: Escherichia coli; read-out: MIC of ertapenem alone
Protocol: as §1, §3

SMILES: OB(O)c1cc(B(O)O)c(B(O)O)s1 [5c, thiophene-2,3,5-triboronic acid]
- MIC [1]: > 400 µg/mL
- MIC [2]: > 400 µg/mL
- MIC [3]: > 400 µg/mL
- MIC (E. coli 77 CMY-2(+)): > 400 µg/mL
- MIC (E. coli 76 KPC-2(+)): > 400 µg/mL
- MIC [4]: > 400 µg/mL
- MIC [5]: > 400 µg/mL
- zone of inhibition at 300 µg/disc [6]: 21 mm
- viability at 72 h, 12.5 mg/L ([7]; 12.5 mg/L): 102 ± 3.4%
- viability at 72 h, 25 mg/L ([7]; 25 mg/L): 97.9 ± 1.4%
- viability at 72 h, 50 mg/L ([7]; 50 mg/L): 85.6 ± 0.7%
- MIC (C. krusei ATCC 6258): > 400 µg/mL
- MIC [8]: > 400 µg/mL
- MIC [9]: > 400 µg/mL
- MIC (E. faecalis ATCC 29212): 200 µg/mL (≈ 928 µM)
- MIC (S. aureus ATCC 6538P): 400 µg/mL (≈ 1860 µM)
- MIC (E. faecium ATCC 6057): > 400 µg/mL
- zone of inhibition at 300 µg/disc [10]: 6 mm
- MIC [11]: > 400 µg/mL
- Average FICI with ceftazidime [12]: 0.43
- Interpretation of the average FICI with ceftazidime [12]: S (FICI ≤ 0.5, synergy)
- Interpretation of the lowest FICI with ceftazidime [12]: S (FICI ≤ 0.5, synergy)
- The lowest FICI with ceftazidime [12]: 0.27
- zone of inhibition at 300 µg/disc [13]: 22 mm
- ceftazidime MIC reduction, up to (AmpC producers; agent 4 mg/L): ≤ 2 fold
- ceftazidime MIC reduction, up to (AmpC producers; agent 8 mg/L): up to 4 fold
- ceftazidime MIC reduction, up to (AmpC producers; agent 16 mg/L): ≤ 8 fold
- Average FICI with ceftazidime [14]: 0.43
- The lowest FICI with ceftazidime [14]: 0.27
- MIC (S. cerevisiae ATCC 9763): > 400 µg/mL
- MIC (C. tropicalis ATCC 750): > 400 µg/mL
- MIC (C. tropicalis IBA 171): > 400 µg/mL
- MIC (C. albicans ATCC 90028): 400 µg/mL (≈ 1860 µM)
- zone of inhibition at 300 µg/disc [15]: 16 mm

SMILES: C[C@@H](O)[C@H]1C(=O)N2C(C(=O)O)=C(S[C@@H]3CN[C@H](C(=O)Nc4cccc(C(=O)O)c4)C3)[C@H](C)[C@H]12 [ERT, ertapenem, reference compound]
- MIC range of ertapenem alone (KPC producers): 32 to 256 µg/mL
- MIC [16]: 64 µg/mL
- MIC [17]: 64 µg/mL
- MIC [18]: 32 µg/mL
- MIC [19]: 256 µg/mL

Reference: publication PMC10648349, “Aromatic Diboronic Acids as Effective KPC/AmpC Inhibitors” (Molecules, 2023)
